Measured values taken from ChEMBL document CHEMBL1201862, “PubChem BioAssay data set” (2004).
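Following 48 hours of exposure in 96-well plates, responses at five concentrations were used to interpolate endpoints linearly. GI50 marks 50% less growth.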 Active and inactive are the calls of the source. No stated cut-off is given here; in the data, active = GI50 up to about 1.1 µM and inactive = higher.

Columns and labels:
Assay in all cases: growth of human tumour cells (NCI), 48 h
Malme-3M = test system: Malme-3M
NCI-H522 = test system: NCI-H522
MDA-MB-435 = test system: MDA-MB-435
SK-MEL-5 = test system: SK-MEL-5
SK-OV-3 = test system: SK-OV-3
COLO 205 = test system: COLO 205
SN12C = test system: SN12C
UACC-257 = test system: UACC-257
K562 = test system: K562
HOP-92 = test system: HOP-92
LOX IMVI = test system: LOX IMVI
IGROV-1 = test system: IGROV-1
NCI/ADR-RES = test system: NCI/ADR-RES
RPMI-8226 = test system: RPMI-8226
MOLT-4 = test system: MOLT-4
HCT-116 = test system: HCT-116
ACHN = test system: ACHN
SF-539 = test system: SF-539
CCRF-CEM = test system: CCRF-CEM
SK-MEL-2 = test system: SK-MEL-2

Measured: GI50

CC(N)C(C)Cc1ccccc1 (stereo not given)
inactive: Malme-3M > 100 µM | NCI-H522 > 100 µM | MDA-MB-435 > 100 µM | SK-MEL-5 > 100 µM | SK-OV-3 > 100 µM | COLO 205 > 100 µM | SN12C > 100 µM | UACC-257 > 100 µM | K562 > 100 µM | HOP-92 64.4 µM | LOX IMVI > 100 µM | IGROV-1 > 100 µM | NCI/ADR-RES > 100 µM | RPMI-8226 > 100 µM | MOLT-4 > 100 µM | HCT-116 > 100 µM | ACHN > 100 µM

CCOC(=O)c1c(-c2ccc(OC)cc2)c(C#N)c(=S)n(C2OC(CO)C(O)C(O)C2O)c1C (stereo not given)
inactive: SF-539 > 100 µM | Malme-3M > 100 µM | NCI-H522 > 100 µM | MDA-MB-435 > 100 µM | SK-MEL-5 > 100 µM | SK-OV-3 > 100 µM | COLO 205 > 100 µM | SN12C > 100 µM | UACC-257 > 100 µM | K562 > 100 µM | HOP-92 > 100 µM | LOX IMVI > 100 µM | IGROV-1 > 100 µM | NCI/ADR-RES > 100 µM | MOLT-4 > 100 µM | CCRF-CEM > 100 µM | HCT-116 > 100 µM | SK-MEL-2 > 100 µM

COc1ccc2c3c1OC1C4(CCC5C(C2)N(CC2CC2)CCC351)OCCO4 (stereo not given)
inactive: Malme-3M > 100 µM | NCI-H522 > 100 µM | MDA-MB-435 > 100 µM | SK-MEL-5 > 100 µM | SK-OV-3 > 100 µM | COLO 205 > 100 µM | SN12C > 100 µM | UACC-257 > 100 µM | K562 > 100 µM | HOP-92 > 100 µM | LOX IMVI > 100 µM | IGROV-1 > 100 µM | NCI/ADR-RES > 100 µM | RPMI-8226 > 100 µM | MOLT-4 > 100 µM | CCRF-CEM > 100 µM | HCT-116 > 100 µM | ACHN > 100 µM | SK-MEL-2 > 100 µM

CN(C)c1cccc2c(S(=O)(=O)NCCN)cccc12 [DANSYL ETHYLENEDIAMINE]
inactive: SF-539 > 100 µM | Malme-3M > 100 µM | NCI-H522 > 100 µM | MDA-MB-435 > 100 µM | SK-MEL-5 46.2 µM | SK-OV-3 > 100 µM | COLO 205 > 100 µM | SN12C > 100 µM | UACC-257 > 100 µM | K562 > 100 µM | HOP-92 > 100 µM | LOX IMVI > 100 µM | IGROV-1 33.7 µM | NCI/ADR-RES > 100 µM | MOLT-4 > 100 µM | CCRF-CEM > 100 µM | HCT-116 35.2 µM | ACHN > 100 µM | SK-MEL-2 > 100 µM

N#Cc1[nH]c(=S)[nH]c1N
inactive: SF-539 > 100 µM | Malme-3M > 100 µM | NCI-H522 > 100 µM | MDA-MB-435 > 100 µM | SK-MEL-5 > 100 µM | SK-OV-3 > 100 µM | COLO 205 > 100 µM | SN12C > 100 µM | UACC-257 > 100 µM | K562 > 100 µM | HOP-92 > 100 µM | LOX IMVI > 100 µM | IGROV-1 > 100 µM | NCI/ADR-RES > 100 µM | CCRF-CEM > 100 µM | HCT-116 > 100 µM | ACHN > 100 µM | SK-MEL-2 > 100 µM

C=CC1(O)CCCC=C1COCc1ccccc1 (stereo not given)
inactive: Malme-3M > 100 µM | NCI-H522 16 µM | MDA-MB-435 47.5 µM | SK-MEL-5 52.6 µM | SK-OV-3 > 100 µM | COLO 205 > 100 µM | SN12C 70 µM | UACC-257 > 100 µM | K562 32.2 µM | HOP-92 52 µM | LOX IMVI 18.8 µM | IGROV-1 16.6 µM | NCI/ADR-RES > 100 µM | RPMI-8226 23.8 µM | MOLT-4 23.4 µM | CCRF-CEM 43.6 µM | HCT-116 51.3 µM | ACHN 56 µM | SK-MEL-2 > 100 µM
